Reference: a melting point compilation (Tetko et al.; mined from patent text by program, amines drawn as free bases though some values may be those of a salt)

With CCOC(=O)C1=C(C)N(C)C(C)=C(C(=O)OCC)C1c1ccccc1/C=C/C(=O)OC(C)(C)C the melting point was 149 to 151 °C. With Cc1noc(NS(=O)(=O)c2cccc(-c3ccccc3)c2)c1Br the melting point was 78 to 82 °C. For CCC(=O)NCC1CC1c1cccc2nn(CC)cc12 (centres undefined), the melting point was 114 to 115 °C. In the case of Cc1nn(C)c2c(Cl)nc(C(C)C)nc12, the melting point is reported as 87 to 89 °C. With CC(C)NCC(O)COc1ccc(NC(=O)N(C)C)cc1Cl (centres undefined) the melting point was 130 °C. Work on CN(C)C(=Cc1ccccc1[N+](=O)[O-])C(=O)CN1C(=O)c2ccccc2C1=O yielded a melting point of 230 to 233 °C. In the case of CC(C)c1nc(CN2C(=O)C3(COc4cc5c(cc43)OCO5)c3c(-c4ccc(N(C)C)nc4)cccc32)cs1 (centres undefined), the melting point is reported as 164 to 165 °C. CN(C)CCc1c[nH]c2ccc(CCC(=O)O)cc12 gave a melting point of 195 to 200 °C. Work on CC[C@H](NC(=O)OC(C)(C)C)C(=O)OCCCCNc1cccc2c1C(=O)c1ccccc1C2=O yielded a melting point of 58 °C. CO/C=C(/C(=O)OC)c1cccnc1Oc1cccc(C=O)c1 showed a melting point of 84 to 86 °C. In the case of CCCCCC(=O)C=Cc1ccc(CCCCCCCC(=O)O)o1, the melting point is reported as 58 to 59 °C. Compound Nc1ccc(C(=O)OCCCCl)c(N)c1 has a melting point of 97 °C. In the case of O=C1N(c2ccc(Cl)cc2F)C(=S)C2CCCCC12O (centres undefined), the melting point is reported as 156 to 157 °C. For Nc1sc(-c2cccnc2)c(CN(C2CCCCC2)C2CCCCC2)c1C(=O)c1ccc(Cl)cc1, the melting point was 168 to 170 °C. O=C1c2cc(Cl)ccc2-n2cnc(Cl)c2[C@@H]2CCCN12 gave a melting point of 209 to 210 °C. Cc1nc(-c2cccc(Cl)c2)c2cc(C(=O)c3ccc(Cl)cc3)ccc2n1 gave a melting point of 182 °C. CN(C)C=C(C#N)C=O gave a melting point of 140 to 141 °C. Compound CC12CCC(I)CC1=CCC1C2CCC2(C)C1CCC21OCCO1 (centres undefined) has a melting point of 140 to 141 °C. Compound CCN1CCN(Cc2ccc(NC(=O)Nc3ccc(Oc4cc(Cl)ncn4)cc3)cc2)CC1 has a melting point of 203 to 204 °C. CCN(CC)CCNC(=O)c1ccc(I)c2cc3ccccc3nc12 gave a melting point of 103 to 105 °C. With Cc1ccc(C(=O)CCCCCBr)cc1C the melting point was 61 to 63 °C. With CC(C)(C)n1[nH]c(Cc2ccncc2)c2c(=O)nc(-c3ccncc3)nc1-2 the melting point was 233 to 235 °C. OC(Cn1cncn1)(OCCOc1ccc(Cl)cc1Cl)c1ccc(Cl)cc1Cl (centres undefined) showed a melting point of 88 to 90 °C. For Nc1cc(Oc2ccc(CCO)cc2)c(N)c2c1C(=O)c1ccccc1C2=O, the melting point was 224 to 227 °C. Cc1cc(CC(O)CO)c(OCc2ccccc2)c2c1CCC2 (centres undefined) showed a melting point of 77 to 80 °C. Work on COC(=O)C(O)C(Sc1ccc2ccccc2c1N)c1ccc(OC)cc1 (centres undefined) yielded a melting point of 132 to 134 °C. COc1cc(OCc2ccccn2)ccc1/C=C/c1cc(/C=C/c2ccc3ccn(C)c3c2)[nH]n1 showed a melting point of 172 to 174 °C. COc1ccccc1N1CCN(CCOc2ccc(-c3cn4ccccc4n3)cc2)CC1 showed a melting point of 151 to 153 °C. Work on Cc1ccccc1C(=O)NC1CCC(=O)N2CCCC(C(=O)NC3CC(=O)OC3OCc3ccccc3)N2C1=O (centres undefined) yielded a melting point of 106 to 110 °C. In the case of Oc1ccc(-c2ccccn2)c(O)c1, the melting point is reported as 170 to 172 °C. COc1cc(OC)cc(-c2nc[nH]c2-c2ccc(OC)c(N)c2O)c1 showed a melting point of 132 to 134 °C. For O=c1cc(CBr)n(Cc2ccccc2)cc1OCCC12CC3CC(CC(C3)C1)C2, the melting point was 200 to 203 °C. For O=C(O)c1ccc(NCc2ccccc2)cc1, the melting point was 165 to 168 °C. CN=Cc1ccc2cc(OC)ccc2c1 showed a melting point of 109 to 110 °C. With COc1ccc(Cl)c(Oc2c(NS(=O)(=O)c3ccc4c(c3)OCO4)ncnc2OCCO)c1 the melting point was 148 to 150 °C. Work on CC1(C)CCc2cc(C(=O)c3ccc4cc(C(=O)O)ccc4c3)ccc2O1 yielded a melting point of 269 °C. COc1ccc(N2Cc3ccccc3P2(C)=O)cc1 (centres undefined) showed a melting point of 148 to 150 °C. With O=C(c1ccc(F)cc1)N1CCC[C@H](c2noc([C@@H](O)c3ccccc3)n2)C1 the melting point was 168 to 172 °C. With CN(C)CCOC1=C(c2ccccc2)CN(Cc2ccco2)C1=O the melting point was 145 to 148 °C. COc1ccc(-c2sc3cc(OC)ccc3c2C(=O)c2ccc(O)cc2)cc1 gave a melting point of 114 to 116 °C. CCC(CC)CNC(=O)c1ccc2c(c1)N(C(C)CN1CCCC1)c1ccccc1S2 (racemic) showed a melting point of 115 °C. Cn1nnc2cc(OC3SCC(O)C(O)C3O)ccc21 (centres undefined) gave a melting point of 220 °C. CCOC(=O)C1=C(C(OC)OC)Nc2nccn2C1c1cccc([N+](=O)[O-])c1 (centres undefined) gave a melting point of 190 to 191 °C. Compound CCCCC/C=C\C/C=C\CCCCCCCC(=O)Nc1cccc(N(CC(=O)O)CC(=O)O)c1 has a melting point of 135 to 140 °C. Cc1nc(-c2ccc(C#N)cc2)sc1C(=O)N(CC(=O)O)[C@H](C)[C@](O)(Cn1cncn1)c1ccc(F)cc1F showed a melting point of 153 to 159 °C. Compound O=Cc1ccc(-c2ncn(-c3ccc(OC(F)(F)F)cc3)n2)cc1 has a melting point of 137 to 140 °C. N#Cc1ccc2c(c1)c(C1CCC3(CC1)OCCO3)cn2Cc1ccccc1 showed a melting point of 129 to 130 °C. For Cc1ccc(C)n1CCN1CCCC1=O, the melting point was 66 to 68 °C. CC(C)(OCCCCCCCCc1csc(-c2ccccc2)n1)C(=O)O showed a melting point of 64 to 70 °C. Work on COc1coc2cc(NS(C)(=O)=O)c(Oc3ccccc3)cc2c1=O yielded a melting point of 164 to 166 °C. In the case of COc1ccccc1Oc1c(O)nc(-c2cccc(OCc3ccccc3)c2)nc1O, the melting point is reported as 192 to 195 °C. For Cc1ccc(S(=O)(=O)n2cc(F)c(=O)[nH]c2=O)cc1, the melting point was 241 to 242 °C. In the case of COc1ccc(Nc2cnc3c(NCc4ccccc4)nc(NCCO)nc3c2)cc1, the melting point is reported as 126 to 127 °C. O=c1[nH]c(-c2ccc(F)cc2)c(CCCl)s1 showed a melting point of 138 °C. Compound CC(=O)NC(C)(C)c1ccc(C(C)N2CCN(c3ccccc3)CC2)cc1 (centres undefined) has a melting point of 169 to 171 °C. With COCCNC(=O)c1ccc(-c2ccc3nnn(Cc4ccc5ncccc5c4)c3n2)cc1F the melting point was 162 to 164 °C. Cc1scc2c1N(C(=O)Cl)c1ccccc1NC2=O gave a melting point of 238 to 239 °C. Work on COC(=O)c1ccc(C(=O)c2cc3c(cc2OCc2ccc(C(C)(C)C)cc2)C(C)(C)CCC3(C)C)cc1 yielded a melting point of 168 to 170 °C. CC(Cc1ccc2c(c1)OCO2)C(=O)O (centres undefined) gave a melting point of 121 °C. Work on Cc1oc(-c2ccc3ccccc3c2)nc1CCc1ccc(CCCC2OC(=O)NC2=O)cc1 (centres undefined) yielded a melting point of 168 to 169 °C. Compound NC1CCN(c2c(F)cc3c(=O)c(C(=O)O)cn(C4CC4)c3c2Cl)C1 (centres undefined) has a melting point of 241 to 242 °C. Compound O=C1CCCN1C(=O)Oc1ccc([N+](=O)[O-])cc1 has a melting point of 122 to 123 °C. Work on O=C(O)CCc1nc(-c2ccccc2)nc2ccccc12 yielded a melting point of 159 °C. With O=C(O)[C@H](Cc1ccc(C(F)(F)F)c(F)c1)[C@@H](O)c1ccc(F)cc1 (racemic) the melting point was 74 to 75 °C. In the case of CCc1sc2c(c1C(=O)CCCN1CCC(c3noc4cc(F)ccc34)CC1)CCN(C(C)=O)C2, the melting point is reported as 93 to 95 °C. OC(CCN1CCC(c2ccc(F)cc2)CC1)c1ccc(Cl)cc1 (centres undefined) showed a melting point of 108 to 110 °C. In the case of CN(C)CC1CCCCN1C(=O)c1ccc(-c2[nH]nc3c2C(=O)c2c(NC(=O)NN4CCOCC4)cccc2-3)s1 (centres undefined), the melting point is reported as over 300 °C. With COc1ccc(S(=O)(=O)N(CC(N)=O)c2ccc(Cl)cc2C(O)c2ccccc2C(F)(F)F)cc1OC (centres undefined) the melting point was 129 °C. In the case of COc1cc(COc2nn(-c3ccccc3)cc2CC(=O)O)ccc1OCc1nc(-c2ccco2)oc1C, the melting point is reported as 179 to 180 °C. For Cc1ccc(C=C(C=O)C(C=O)=Cc2ccc(C)cc2)cc1, the melting point was 177 to 178 °C. With CCCOC1=C(c2ccccc2)C(CCC(=O)O)OC1=O (centres undefined) the melting point was 123 to 125 °C. Work on COC(=O)c1ccc(C(F)(F)F)cc1C#N yielded a melting point of 52 °C. Compound N#Cc1cnc2c(c1)N(Cc1cc(Cl)ccc1Cl)CCN2 has a melting point of 221 to 222 °C. C=C(C)c1ccc(CNC(=O)N2CCN(c3ncnc4cc(OC)c(OC)cc34)CC2)cc1 gave a melting point of 123 to 124 °C. With COc1cccc(C=CC2=NN(C(C)=O)C(C)Cc3cc4c(cc32)OCO4)c1OC (centres undefined) the melting point was 125 to 128 °C. COC(=O)c1ccc(OCCNC(=O)C2Cc3ccccc3N2S(=O)(=O)c2ccc(-c3ccc(F)cc3)cc2)cc1F (centres undefined) showed a melting point of 77 to 81 °C. CC(C)(C)c1ccc(S(=O)(=O)N2c3ccccc3C[C@H]2C(=O)NCc2ccc(N)cc2)cc1 showed a melting point of 83 to 87 °C. Cc1cc(-n2ccc(=O)[nH]c2=O)cc(Cl)c1Sc1ccc(Cl)cc1 showed a melting point of 150 to 160 °C. Compound O=C(CO/N=C/c1ccc([N+](=O)[O-])c(CO)c1)N1CCN(CC2CCCCC2)CC1 has a melting point of 170 °C. For O=C(NCc1ccc(Cl)cc1)c1cnc2c(Cl)c(Cl)ccc2c1O, the melting point was 295 to 297 °C. Compound CS(=O)(=O)c1ccc(-c2ccc(C(F)F)n2-c2ccc(F)cc2)cc1 has a melting point of 111 to 112 °C. Compound CC(=O)OC1CCC2(C)C(=CCC3C2CCC2(C)C(C(C)=O)CCC32F)C1 (centres undefined) has a melting point of 128 °C. In the case of CN(C(=O)COc1nnc(Cl)s1)c1ccccc1, the melting point is reported as 101 °C. Work on C=CCn1cc(C(=O)OCC)c(=O)c2cc(C(=O)OC)ccc21 yielded a melting point of 156 to 163 °C. C=CCCCCCCCCc1nc2c(s1)NCCCC2 showed a melting point of 94 to 95 °C. For NCCC(O)(c1ccccc1)c1ccccc1, the melting point was 134 to 136 °C. CCCc1nc2c(N)nc3cc(OCCCCCCNC(C)=O)ccc3c2n1CCCCNS(C)(=O)=O gave a melting point of 168 to 172 °C. COC(=O)C1=C(O)c2sc(C(F)(F)F)cc2S(=O)(=O)N1 showed a melting point of 168 to 170 °C. Compound CC12CCC3c4ccc(O)cc4CCC3C1CC(O)C2=C(F)F (centres undefined) has a melting point of 225 to 227 °C. Compound Cc1ccc(-c2cc(Cl)c3ccc(C)cc3n2)cc1 has a melting point of 110 to 111 °C. In the case of N#Cc1ccccc1NC1=CC(=O)CCC1, the melting point is reported as 206 °C. With CNc1cc(Oc2ccc(NC(=O)Nc3ccc(-c4ccncc4)c(C(F)(F)F)c3)cc2)ncn1 the melting point was 127 to 130 °C. Cc1cccc(C)c1N(CCl)C(=O)c1ccccc1 gave a melting point of 133 °C. With O[C@H]1CC[C@H](Oc2cccc3onc(OCC4CCN(CC5(O)CCOCC5)CC4)c23)C1 (relative stereo) the melting point was 147 °C. In the case of Cc1nc(N(C)C)n2ncc(-c3ccncc3)c2n1, the melting point is reported as 195 to 197 °C. Work on CC(C)(C)C(=O)Nc1ccc(F)cc1C1(O)CCN(C/C=C/c2ccc(Cl)cc2)CC1 yielded a melting point of 172 to 173 °C. Work on CCCSc1sc(C(=O)N2CCCC2)c2c1-c1oncc1C(C)(C)C2 yielded a melting point of 72 to 76 °C. Compound Cc1cc(N(C)Cc2ccc(-c3ccc(Cl)cc3)nc2)ccc1OCC(=O)O has a melting point of 174 to 176 °C. COc1ccc(OC)c2c1Cc1c([nH]cnc1=O)N2 gave a melting point of over 300 °C.
